From patent US6241965A, “Somatostatin derivatives and their radiolabelled products” (Diatide, Inc., priority 1996, dated 2001)
pKi: −log10 of the molar value. Starred links: 1 amine or outer side, 2 acyl side, 3 side chain; linkers in the order of their positions; H or OH if unused. Positions of bridges follow the written chain, without caps; N, C: chain ends. Non-standard residues stand in square brackets, D forms with d. Residues, ends and D or L forms follow the SMILES beside them. Chains are numbered I, II in the order given. *: point of attachment. DTPA = O=C(O)CN(CCN(CC(=O)O)CC(=O)O)CCN(CC(=O)O)CC(=O)*; X1 = O=C(C(=O)*)[C@@H](O)[C@H](O)[C@@H](O)CO; Phe(4-Cl) = N[C@@H](Cc1ccc(Cl)cc1)C(=O)O; 2Nal = N[C@@H](Cc1ccc2ccccc2c1)C(=O)O; d2Nal = N[C@H](Cc1ccc2ccccc2c1)C(=O)O; εLys = N[C@@H](CCCCN[*:1])C(=O)[*:2]; NMeF = CN[C@@H](Cc1ccccc1)C(=O)O; hCys = N[C@@H](CCS)C(=O)O; X2 = O=C(C[*:1])[*:2]; Acm = CC(=O)NC*

target: T1, somatostatin receptors (Rattus norvegicus, UniProt P30680); assay: Inhibition of binding of (125I-Tyr11)somatostatin-14 to AR42J rat pancreatic tumor cell membranes; conditions: (Re=O)-complexed peptides; displacement of (125I-Tyr11)somatostatin-14, AR42J cell membranes
T1 construct: endogenous in cells; host or cells: AR42J rat pancreatic tumor cell membranes
T1 sequence (P30680 whole entry): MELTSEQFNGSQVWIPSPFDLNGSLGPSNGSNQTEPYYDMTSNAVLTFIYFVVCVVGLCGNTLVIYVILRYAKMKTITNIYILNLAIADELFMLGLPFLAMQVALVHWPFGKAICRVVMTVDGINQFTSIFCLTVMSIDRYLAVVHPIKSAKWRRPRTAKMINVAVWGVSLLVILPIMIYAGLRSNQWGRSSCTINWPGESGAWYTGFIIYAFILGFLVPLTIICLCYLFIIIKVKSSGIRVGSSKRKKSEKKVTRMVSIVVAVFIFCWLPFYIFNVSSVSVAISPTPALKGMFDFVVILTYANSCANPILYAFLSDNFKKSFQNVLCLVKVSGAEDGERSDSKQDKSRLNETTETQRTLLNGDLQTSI
Experimental: Inhibition of Binding of (^125 I-Tyr^11)somatostatin-14 to AR42J Rat Pancreatic Tumor Cell Membranes
The rat pancreatic tumor cell line AR42J which expresses the somatostatin receptor was cultured in Dulbecco's minimal essential media (DMEM) supplemented with 10% fetal bovine serum (FBS) and 8 mM glutamine in a humdified 5% CO2 atmosphere at 37° C. in T-flasks. Harvested cells were homogenized in cold 50 mM Tris-HCl buffer (pH 7.4) and the homogenate then centrifuged at 39,000g for 10 min at 4° C. Pellets were washed once with buffer and then resuspended in an ice-cold solution of 10mM Tris-HCl (pH 7.4). Equal aliquots of this cell membrane preparation were incubated with (^125 I-Tyr^11)somatostatin-14 (at a final concentration of 0.5nM and 750,000cpm/mL, at a specific activity of 2000Ci/mmol, Amersham, Arlington Heights, Ill.) and peptide at a final concentration of from 10^-11 M to 10^-6 M in a solution of 50 mM HEPES (pH 7.4) containing 1% bovine serum albumin (BSA), 5 mM MgCl2, Trasylol (200,000 International Units), bacitracin (0.02 mg/mL) and phenylmethylsulfonylfluoride (0.02 mg/mL) for 25 min at 30° C. Using a filtration manifold, this mixture was filtered through a polyethyleneimine-washed GC/F filter (Whatman, Maidstone, England), and the residue remaining on the filter washed thrice with 5 mL cold HEPES buffer. The filter and a sample of the filter washings were then counted in a gamma counter. To assess non-specific binding, the assay was performed in the presence of unlabeled somatostatin-14 at 200 nM. Data analysis including Hill plots of the data provided inhibition constants (see Bylund & Yamamura, "Methods of receptor binding", in Methods in Neurotransmitter Receptor Analysis, Yamamura et al., eds., Raven Press: New York, 1990).

pKi	Compound
8.51	CC(=O)NCSC[C@H](NC(=O)CNC(=O)[C@H](CSCNC(C)=O)NC(=O)[C@@H](NC(=O)[C@H](Cc1ccccc1)NC(=O)[C@@H](NC(=O)[C@H](CCCCN)NC(=O)[C@@H](Cc1c[nH]c2ccccc12)NC(=O)[C@H](Cc1ccc(O)cc1)NC(=O)[C@H](Cc1ccc(Cl)cc1)NC(=O)[C@@H](Cc1ccc2ccccc2c1)NC(=O)CN(CCN(CCN(CC(=O)O)CC(=O)O)CC(=O)O)CC(=O)O)[C@@H](C)O)[C@@H](C)O)C(N)=O [(DTPA)NalD.Cpa.YWD KTFTCAcm GCAcm.amide] ({DTPA}-[d2Nal][Phe(4-Cl)]Y[dW]KTFTC(Acm)GC(Acm)-NH2)
8.09	(DTPA).Aca.FD.Cpa.YWD KTFT(ε-K)GC.amide
7.96	(DTPA).NalD.Cpa.YWD KTFT(ε-K)GC.amide
8.85	Ac.DD DFD.Cpa.YWD KTFT(ε-K)GCKK.amide
9.30	DD DFD.Cpa.YWD KTFT(ε-K)GCKK.amide
9.44	FD.Cpa.YWD KTC(ε-K)GC.amide
9.89	FD.Cpa.YWD KTC(ε-K)GCKK.amide
8.10	Hca.NalD.Cpa.YWD KTFT(ε-K)GCKK, amide
8.80	KD KK.NalD.Cpa.YWD KTFT(ε-K)GCDD.amide
8.09	KD KKKFD.Cpa.YWD KTF.Nal.(ε-K)GCDDDD.amide

The next lines start with the compound.

Compound	pKi
C[C@@H](O)[C@H](NC(=O)[C@H](Cc1ccccc1)NC(=O)[C@@H](NC(=O)[C@H](CCCCN)NC(=O)[C@@H](Cc1c[nH]c2ccccc12)NC(=O)[C@H](Cc1ccc(O)cc1)NC(=O)[C@H](Cc1ccc(Cl)cc1)NC(=O)[C@@H](Cc1ccccc1)NC(=O)C(=O)[C@@H](O)[C@H](O)[C@@H](O)CO)[C@@H](C)O)C(=O)NCCCC[C@H](N)C(=O)NCC(=O)N[C@@H](CS)C(N)=O [(2-ketogulonyl)FD.Cpa.YWD KTFT(ε-K)GC.amide] (X1-[dF][Phe(4-Cl)]Y[dW]KTFT[εLys]GC-NH2)	8.43
(DTPA).FD.Cpa.YWD KTFT(ε-K)GC.amide	8.10
Ac.FD FYWD KTFTGGG(ε-K)KC.amide	8.21
FD.Cpa.YWD KTC(ε-K)CGC.amide	9.43
KD KK.NalD.Cpa.YWD KTFT(ε-K)GCDDD.amide	8.82
KDKKK.NalD.Cpa.YWD KTFT(ε-K)GCKDKD.amide	8.42
NalD.Cpa.YWD KTFT(ε-K)GCKK.amide	8.66

same assay, conditions: peptides not metal-complexed; displacement of (125I-Tyr11)somatostatin-14, AR42J cell membranes

pKi	Compound
8.70	C[C@@H](O)[C@H](NC(=O)[C@H](Cc1ccc2ccccc2c1)NC(=O)[C@@H](NC(=O)[C@H](CCCCN)NC(=O)[C@@H](Cc1c[nH]c2ccccc12)NC(=O)[C@H](Cc1ccc(O)cc1)NC(=O)[C@H](Cc1ccc(Cl)cc1)NC(=O)[C@@H](Cc1ccc2ccccc2c1)NC(=O)CN(CCN(CCN(CC(=O)O)CC(=O)O)CC(=O)O)CC(=O)O)[C@@H](C)O)C(=O)NCCCC[C@H](N)C(=O)NCC(=O)N[C@@H](CS)C(=O)N[C@@H](CCCCN)C(=O)N[C@@H](CCCCN)C(N)=O [(DTPA)NalD.Cpa.YWD KT.Nal.T(ε-K)GCKK.amide] ({DTPA}-[d2Nal][Phe(4-Cl)]Y[dW]KT[2Nal]T[εLys]GCKK-NH2)
8.85	C[C@H](N)C(=O)N[C@@H](CCCCN)C(=O)N[C@@H](CS)C(=O)NCC(=O)NCC(=O)NCC(=O)N[C@H](Cc1ccccc1)C(=O)N[C@@H](Cc1ccc(Cl)cc1)C(=O)N[C@@H](Cc1ccc(O)cc1)C(=O)N[C@H](Cc1c[nH]c2ccccc12)C(=O)N[C@@H](CCCCN)C(=O)N[C@H](C(=O)N[C@@H](Cc1ccccc1)C(=O)N[C@H](C(N)=O)[C@@H](C)O)[C@@H](C)O [AKCGGGFD.Cpa.YWD KTFT.amide] (H-AKCGGG[dF][Phe(4-Cl)]Y[dW]KTFT-NH2)
8.31	KD KKK.NalD.Cpa.YWD KTFT(ε-K)GCKDKD.amide

Continued, compound first:

Compound	pKi
C[C@@H](O)[C@H](NC(=O)[C@H](Cc1ccccc1)NC(=O)[C@@H](NC(=O)[C@H](CCCCN)NC(=O)[C@@H](Cc1c[nH]c2ccccc12)NC(=O)[C@H](Cc1ccc(O)cc1)NC(=O)[C@H](Cc1ccc(Cl)cc1)NC(=O)[C@@H](Cc1ccccc1)NC(=O)C(=O)[C@@H](O)[C@H](O)[C@@H](O)CO)[C@@H](C)O)C(=O)NCCCC[C@H](N)C(=O)NCC(=O)N[C@@H](CS)C(N)=O [(2-ketogulonyl)FD.Cpa.YWD KTFT(ε-K)GC.amide] (X1-[dF][Phe(4-Cl)]Y[dW]KTFT[εLys]GC-NH2)	8.57
CC(C)[C@H](NC(=O)[C@H](CCCCN)NC(=O)[C@@H](Cc1c[nH]c2ccccc12)NC(=O)[C@H](Cc1ccc(O)cc1)NC(=O)[C@H](CS)NC(=O)[C@@H](Cc1ccc2ccccc2c1)NC(=O)CN(CCN(CCN(CC(=O)O)CC(=O)N[C@H](Cc1ccc2ccccc2c1)C(=O)N[C@@H](CS)C(=O)N[C@@H](Cc1ccc(O)cc1)C(=O)N[C@H](Cc1c[nH]c2ccccc12)C(=O)N[C@@H](CCCCN)C(=O)N[C@H](C(=O)N[C@@H](CS)C(=O)N[C@H](C(N)=O)[C@@H](C)O)C(C)C)CC(=O)O)CC(=O)O)C(=O)N[C@@H](CS)C(=O)N[C@H](C(N)=O)[C@@H](C)O [(DTPA)(NalD.CYWD KVCT)2]	8.14
C[C@@H](O)[C@H](NC(=O)[C@H](Cc1ccccc1)NC(=O)[C@@H](NC(=O)[C@H](CCCCN)NC(=O)[C@@H](Cc1c[nH]c2ccccc12)NC(=O)[C@H](Cc1ccc(O)cc1)NC(=O)[C@H](Cc1ccc(Cl)cc1)NC(=O)[C@H](N)Cc1ccccc1)[C@@H](C)O)C(=O)N[C@@H](CS)C(=O)NCC(=O)N[C@@H](CS)C(N)=O [FD.Cpa.YWD KTFTCGC.amide] (H-[dF][Phe(4-Cl)]Y[dW]KTFTCGC-NH2)	8.32
CC(C)[C@@H]1NC(=O)[C@H](CCCCN)NC(=O)[C@@H](Cc2c[nH]c3ccccc23)NC(=O)[C@H](Cc2ccc(O)cc2)NC(=O)[C@H](Cc2ccccc2)N(C)C(=O)[C@H](CCSCC(=O)NCC(=O)NCC(=O)N[C@@H](CS)C(=O)N[C@@H](CCCCN)C(=O)N[C@@H](CCCCN)C(N)=O)NC1=O [cyclo(N-Me)FYWD KV.Hcy(CH2 CO.GGCKK.amide)] (I: cyclo([NMeF]Y[dW]KV[hCys]) / II: GGCKK-NH2; linker I:6-II:N via X2)	9.59
